In patent publication US8003648B2, “Heterocyclic GPR40 modulators” (Amgen Inc., priority 2006, dated 2011):

Target: T1, human GPR40 (Homo sapiens, UniProt O14842)
T1 construct: host or cells: CHO cells
Experiment: Cell-based aequorin assay using human GPR40
Details: activation of human GPR40; CHO cells stably transfected with GPR40 and Aequorin; 0.01% HSA; aequorin luminescence
Method: Cell-based aequorin assays were employed to characterize the modulatory activity of compounds on the GPR40 signaling pathway. In an exemplary assay, CHO cells were stably transfected with both GPR40 and Aequorin (Euroscreen). Cells were detached from the tissue culture dish with 2 mL of trypsin (0.25% (w/v)). Trypsinization was halted with 28 mL of Hanks Buffered Salt Solution containing 20 mM Hepes (H/HBSS) and 0.01% fatty acid-free human serum albumin (HSA). Coelantrazine is added to 1 ug/mL, and the cells were incubated for 2 hours at room temperature. Compounds were dissolved in DMSO for preparation of 10 mM stock solutions. Compounds were diluted in H/HBSS containing 0.01% HSA. Serial dilutions of the test compounds were prepared to determine dose response.
Aequorin luminescence measurements were made using an EG&G Berthold 96-well luminometer, and the response was measured over a 20 second interval after cells and compounds were mixed. The maximum relative light units was plotted to determine dose response. The EC50 (effective concentration to reach 50% maximal response) was determined from the dose response plot.
Table 1 presents representative data (EC50 values) obtained for exemplary compounds of the invention for the activation of human GPR40. […]

T1 sequence (O14842 whole entry): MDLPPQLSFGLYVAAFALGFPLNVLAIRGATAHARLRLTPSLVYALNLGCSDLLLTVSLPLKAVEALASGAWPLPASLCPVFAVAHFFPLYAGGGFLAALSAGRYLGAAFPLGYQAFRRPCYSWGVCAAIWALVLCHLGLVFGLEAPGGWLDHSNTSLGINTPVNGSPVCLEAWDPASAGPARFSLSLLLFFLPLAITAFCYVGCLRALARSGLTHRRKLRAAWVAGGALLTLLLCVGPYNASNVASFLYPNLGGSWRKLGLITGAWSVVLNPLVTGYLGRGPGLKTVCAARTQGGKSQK

CC1(C)CCC=C1c1ccc(COc2ccc([C@H](CC(=O)O)c3ccon3)cc2)cc1OC(F)(F)F [Example 36, (S)-3-(4-(4-(5,5-Dimethylcyclopent-1-enyl)-3-(trifluoromethoxy)benzyloxy)phenyl)-3-(isoxazol-3-yl)propanoic acid]
EC50: 100 to 1000 nM
